Activity calls are given as the source filed them. The calls are words filed in the database; no cut-off is given here.
Key:
HCT-116 [1] = experiment: Growth inhibition of human HCT-116 cells incubated for 48 hrs by CCK-8 assay; type: functional
HT-29 = experiment: Growth inhibition of human HT-29 cells incubated for 48 hrs by CCK-8 assay; type: functional
CDK9/cyclin T1 = CDK9/cyclin T1 (Homo sapiens, UniProt P50750); experiment: Inhibition of CDK9/Cyclin T1 (unknown origin) using PDKtide substrate incubated for 60 mins by ADP-Glo kinase assay; type: protein-complex assay
[2] = target: CDK9/cyclin T1 (Homo sapiens) (UniProt O60563+P50750); experiment: Inhibition of CDK9/Cyclin T1 (unknown origin) using PDKtide substrate at 500 nM incubated for 60 mins by ADP-Glo kinase assay relative to control; type: protein-complex assay
HCT-116 [3] = experiment: Inhibition of colony formation in human HCT-116 cells assessed as reduction in colony number incubated for 14 days by crystal violet staining assay; type: functional, cell-based; settings: time 14.0 day
HCT-116 [4] = experiment: Antitumor activity against human HCT-116 cells xenografted in BALB/c mouse assessed as tumor growth inhibition at 50 mg/kg,po administrated once daily for 3 weeks; type: functional, organism-based
[5] = target: CDK1/Cyclin E (Homo sapiens) (UniProt P06493+P24864); experiment: Inhibition of CDK1/Cyclin E1 (unknown origin) at 100 nM; type: protein-complex assay
[6] = target: CDK2/Cyclin A2 (Homo sapiens) (UniProt P24941+P20248); experiment: Inhibition of CDK2/Cyclin A2 (unknown origin) at 100 nM; type: protein-complex assay
Homo sapiens = species: Homo sapiens; experiment: Inhibition of CDK1/Cyclin A2 (unknown origin) at 100 nM
[7] = target: Cyclin-dependent kinase 2/cyclin E1 (Homo sapiens) (UniProt P24864+P24941); experiment: Inhibition of CDK2/Cyclin E1 (unknown origin) at 100 nM; type: protein-complex assay
CYP2C19 = CYP2C19 (Homo sapiens, UniProt P33261); experiment: Inhibition of CYP2C19 in human liver microsomes using benzylnirvanol as […] at 10 uM preincubated for 10 mins followed by NADPH addition measured after 15 mins by LC-MS/MS analysis relative to control; type: ADME, Microsome; settings: probe benzylnirvanol, time 25 min
CYP3A4 = CYP3A4 (Homo sapiens, UniProt P08684); experiment: Inhibition of CYP3A4 in human liver microsomes using ketoconazole as […] at 10 uM preincubated for 10 mins followed by NADPH addition measured after 15 mins by LC-MS/MS analysis relative to control; type: ADME, Microsome; settings: probe ketoconazole, time 25 min
[8] = target: Cyclin-dependent kinase 5 (Homo sapiens, UniProt Q00535); experiment: Inhibition of CDK5 (unknown origin)
[9] = target: Cyclin-dependent kinase 7 (Homo sapiens, UniProt P50613); experiment: Inhibition of CDK7 (unknown origin)
[10] = target: Cyclin-dependent kinase 6 (Homo sapiens, UniProt Q00534); experiment: Inhibition of CDK6 (unknown origin)
[11] = Half life in human plasma measured upto 120 mins by LC-MS/MS analysis; type: ADME, cell-free
[12] = target: Cyclin-dependent kinase 12 (Homo sapiens, UniProt Q9NYV4); experiment: Inhibition of CDK12 (unknown origin)
[13] = Half life in human liver microsomes at 100 uM measured upto 60 mins in presence of NADPH by LC-MS/MS analysis; type: ADME, Microsome
[14] = target: Cyclin-dependent kinase 4 (Homo sapiens, UniProt P11802); experiment: Inhibition of CDK4 (unknown origin)
CYP2C9 = CYP2C9 (Homo sapiens, UniProt P11712); experiment: Inhibition of CYP2C9 in human liver microsomes using sulfaphenazole as […] at 10 uM preincubated for 10 mins followed by NADPH addition measured after 15 mins by LC-MS/MS analysis relative to control; type: ADME, Microsome; settings: probe sulfaphenazole, time 25 min
[15] = target: Cyclin-dependent kinase 8 (Homo sapiens, UniProt P49336); experiment: Inhibition of CDK8 (unknown origin)
[16] = Intrinsic clearance in human liver microsomes at 100 uM measured upto 60 mins in presence of NADPH by LC-MS/MS analysis; type: ADME, Microsome; settings: 1 h
CYP1A2 = target: T1, CYP1A2 (Homo sapiens, UniProt P05177); experiment: Inhibition of CYP1A2 in human liver microsomes using alpha-naphthoflavone as […] at 10 uM preincubated for 10 mins followed by NADPH addition measured after 15 mins by LC-MS/MS analysis relative to control; type: ADME, Microsome; settings: time 25 min
T1 sequence (P05177 whole entry): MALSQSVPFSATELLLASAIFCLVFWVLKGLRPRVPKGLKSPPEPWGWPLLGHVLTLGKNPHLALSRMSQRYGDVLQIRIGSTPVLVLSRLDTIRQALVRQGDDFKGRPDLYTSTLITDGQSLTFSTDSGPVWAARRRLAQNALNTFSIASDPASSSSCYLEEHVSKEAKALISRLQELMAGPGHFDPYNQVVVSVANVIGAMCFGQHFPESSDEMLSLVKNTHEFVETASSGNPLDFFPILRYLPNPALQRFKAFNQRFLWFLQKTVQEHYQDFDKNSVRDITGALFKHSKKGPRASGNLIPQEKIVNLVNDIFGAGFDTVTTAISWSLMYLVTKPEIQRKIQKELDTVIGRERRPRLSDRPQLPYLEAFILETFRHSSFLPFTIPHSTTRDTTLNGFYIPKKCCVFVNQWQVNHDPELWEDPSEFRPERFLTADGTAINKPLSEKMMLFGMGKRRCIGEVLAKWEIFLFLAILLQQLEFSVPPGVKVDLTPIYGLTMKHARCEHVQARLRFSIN

[17] = target: Cyclin-dependent kinase 2 (Homo sapiens, UniProt P24941); experiment: Inhibition of CDK2 (unknown origin)
[18] = target: Cyclin-dependent kinase 1 (Homo sapiens, UniProt P06493); experiment: Inhibition of CDK1 (unknown origin)
[19] = Intrinsic microsomal clearance in human liver microsomes at 100 uM measured upto 60 mins in presence of NADPH by LC-MS/MS analysis; type: ADME, Microsome; settings: read-out: CLH
[20] = Stability in human liver microsomes assessed as compound remaining at 100 uM measured upto 60 mins in presence of NADPH by LC-MS/MS analysis; type: ADME, Microsome; settings: read-out: Stability
[21] = target: Cyclin-dependent kinase 9 (Homo sapiens, UniProt P50750); experiment: Inhibition of CDK9 (unknown origin)
CYP2D6 = CYP2D6 (Homo sapiens, UniProt P10635); experiment: Inhibition of CYP2D6 in human liver microsomes using quinidine as […] at 10 uM preincubated for 10 mins followed by NADPH addition measured after 15 mins by LC-MS/MS analysis relative to control; type: ADME, Microsome; settings: time 25 min

CDK9/cyclin T1, sequence (O60563 whole entry): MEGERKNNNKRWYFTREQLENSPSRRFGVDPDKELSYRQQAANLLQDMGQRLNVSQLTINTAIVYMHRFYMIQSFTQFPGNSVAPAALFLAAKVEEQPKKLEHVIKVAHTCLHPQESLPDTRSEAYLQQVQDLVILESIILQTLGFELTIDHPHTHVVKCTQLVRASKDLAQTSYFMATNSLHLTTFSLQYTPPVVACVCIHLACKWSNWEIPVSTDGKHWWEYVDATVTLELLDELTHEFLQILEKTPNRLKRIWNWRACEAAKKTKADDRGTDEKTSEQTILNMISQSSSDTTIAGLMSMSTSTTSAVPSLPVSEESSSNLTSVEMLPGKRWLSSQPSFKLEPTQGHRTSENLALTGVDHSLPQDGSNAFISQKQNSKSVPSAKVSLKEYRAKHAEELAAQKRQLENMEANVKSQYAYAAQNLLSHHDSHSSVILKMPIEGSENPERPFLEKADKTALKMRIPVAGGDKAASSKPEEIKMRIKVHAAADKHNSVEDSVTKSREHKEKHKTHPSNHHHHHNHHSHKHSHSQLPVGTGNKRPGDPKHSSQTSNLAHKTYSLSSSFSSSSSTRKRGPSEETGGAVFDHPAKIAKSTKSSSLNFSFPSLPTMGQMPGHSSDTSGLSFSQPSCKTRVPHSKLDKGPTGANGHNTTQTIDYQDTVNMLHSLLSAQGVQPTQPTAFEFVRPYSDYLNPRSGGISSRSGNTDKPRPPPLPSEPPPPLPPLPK
CDK9/cyclin T1, sequence (P50750 whole entry): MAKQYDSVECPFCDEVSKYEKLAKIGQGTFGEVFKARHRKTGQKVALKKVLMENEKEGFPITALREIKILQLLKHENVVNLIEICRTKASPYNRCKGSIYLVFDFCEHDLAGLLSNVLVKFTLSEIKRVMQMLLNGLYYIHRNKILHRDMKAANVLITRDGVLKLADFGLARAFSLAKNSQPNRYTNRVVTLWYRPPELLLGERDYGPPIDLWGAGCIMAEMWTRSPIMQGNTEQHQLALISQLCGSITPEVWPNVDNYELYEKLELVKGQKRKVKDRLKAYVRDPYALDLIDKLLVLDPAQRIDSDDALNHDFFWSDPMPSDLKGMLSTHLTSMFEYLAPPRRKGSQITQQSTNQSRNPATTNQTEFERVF
Cyclin-dependent kinase 1, sequence (P06493 whole entry): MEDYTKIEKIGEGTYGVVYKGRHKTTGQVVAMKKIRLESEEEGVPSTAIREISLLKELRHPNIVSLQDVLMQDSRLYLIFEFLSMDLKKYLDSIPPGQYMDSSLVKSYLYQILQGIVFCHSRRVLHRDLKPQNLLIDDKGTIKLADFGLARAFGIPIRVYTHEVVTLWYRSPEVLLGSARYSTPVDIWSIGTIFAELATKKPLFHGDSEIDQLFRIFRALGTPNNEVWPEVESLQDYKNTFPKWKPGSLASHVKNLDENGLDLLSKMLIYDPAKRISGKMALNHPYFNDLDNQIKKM
CYP2C19, sequence (P33261 whole entry): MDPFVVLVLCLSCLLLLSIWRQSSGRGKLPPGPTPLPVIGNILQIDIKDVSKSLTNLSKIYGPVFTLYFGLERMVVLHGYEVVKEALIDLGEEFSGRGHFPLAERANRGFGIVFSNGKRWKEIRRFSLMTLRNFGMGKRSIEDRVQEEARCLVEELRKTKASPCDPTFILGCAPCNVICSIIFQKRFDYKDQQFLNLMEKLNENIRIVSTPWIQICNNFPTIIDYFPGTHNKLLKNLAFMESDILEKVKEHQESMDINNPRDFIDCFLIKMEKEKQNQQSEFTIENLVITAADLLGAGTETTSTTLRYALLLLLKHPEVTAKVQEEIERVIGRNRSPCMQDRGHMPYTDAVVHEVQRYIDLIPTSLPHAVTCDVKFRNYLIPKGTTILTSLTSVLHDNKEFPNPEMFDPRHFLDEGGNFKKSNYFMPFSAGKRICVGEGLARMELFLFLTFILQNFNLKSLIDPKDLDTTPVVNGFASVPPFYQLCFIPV
Cyclin-dependent kinase 5, sequence (Q00535 whole entry): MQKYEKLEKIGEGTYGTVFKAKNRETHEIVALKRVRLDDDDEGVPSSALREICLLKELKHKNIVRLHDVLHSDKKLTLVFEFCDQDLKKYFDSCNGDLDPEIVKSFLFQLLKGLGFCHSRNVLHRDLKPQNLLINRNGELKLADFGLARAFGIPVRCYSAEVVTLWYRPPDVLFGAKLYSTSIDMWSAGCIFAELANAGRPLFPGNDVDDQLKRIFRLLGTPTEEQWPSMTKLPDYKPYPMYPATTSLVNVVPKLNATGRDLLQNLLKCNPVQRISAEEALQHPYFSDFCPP
Cyclin-dependent kinase 8, sequence (P49336 whole entry): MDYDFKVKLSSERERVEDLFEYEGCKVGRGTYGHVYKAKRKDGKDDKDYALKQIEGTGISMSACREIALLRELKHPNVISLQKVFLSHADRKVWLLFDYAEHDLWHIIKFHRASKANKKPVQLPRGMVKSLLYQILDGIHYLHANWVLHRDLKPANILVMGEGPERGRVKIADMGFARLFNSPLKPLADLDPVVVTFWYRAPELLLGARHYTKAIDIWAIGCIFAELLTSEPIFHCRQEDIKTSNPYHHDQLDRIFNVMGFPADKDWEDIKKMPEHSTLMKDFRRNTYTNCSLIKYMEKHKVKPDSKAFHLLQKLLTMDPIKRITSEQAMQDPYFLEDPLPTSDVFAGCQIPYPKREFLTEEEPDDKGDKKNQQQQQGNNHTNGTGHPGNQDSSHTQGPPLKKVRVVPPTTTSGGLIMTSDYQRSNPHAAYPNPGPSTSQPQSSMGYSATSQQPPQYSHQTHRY
CYP3A4, sequence (P08684 whole entry): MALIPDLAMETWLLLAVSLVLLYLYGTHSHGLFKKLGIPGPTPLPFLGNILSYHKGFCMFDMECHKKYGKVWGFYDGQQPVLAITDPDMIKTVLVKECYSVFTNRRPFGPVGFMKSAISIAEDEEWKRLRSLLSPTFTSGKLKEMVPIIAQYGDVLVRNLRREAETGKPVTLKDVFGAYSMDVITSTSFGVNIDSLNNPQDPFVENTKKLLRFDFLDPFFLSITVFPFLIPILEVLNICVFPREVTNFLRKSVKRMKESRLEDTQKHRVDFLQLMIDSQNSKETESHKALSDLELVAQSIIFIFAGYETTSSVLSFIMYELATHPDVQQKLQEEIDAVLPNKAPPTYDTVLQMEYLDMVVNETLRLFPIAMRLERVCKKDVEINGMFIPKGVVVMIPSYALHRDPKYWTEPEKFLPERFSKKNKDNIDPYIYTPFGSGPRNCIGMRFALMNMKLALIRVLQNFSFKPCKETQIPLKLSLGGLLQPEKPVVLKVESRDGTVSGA
Cyclin-dependent kinase 12, sequence (Q9NYV4 whole entry): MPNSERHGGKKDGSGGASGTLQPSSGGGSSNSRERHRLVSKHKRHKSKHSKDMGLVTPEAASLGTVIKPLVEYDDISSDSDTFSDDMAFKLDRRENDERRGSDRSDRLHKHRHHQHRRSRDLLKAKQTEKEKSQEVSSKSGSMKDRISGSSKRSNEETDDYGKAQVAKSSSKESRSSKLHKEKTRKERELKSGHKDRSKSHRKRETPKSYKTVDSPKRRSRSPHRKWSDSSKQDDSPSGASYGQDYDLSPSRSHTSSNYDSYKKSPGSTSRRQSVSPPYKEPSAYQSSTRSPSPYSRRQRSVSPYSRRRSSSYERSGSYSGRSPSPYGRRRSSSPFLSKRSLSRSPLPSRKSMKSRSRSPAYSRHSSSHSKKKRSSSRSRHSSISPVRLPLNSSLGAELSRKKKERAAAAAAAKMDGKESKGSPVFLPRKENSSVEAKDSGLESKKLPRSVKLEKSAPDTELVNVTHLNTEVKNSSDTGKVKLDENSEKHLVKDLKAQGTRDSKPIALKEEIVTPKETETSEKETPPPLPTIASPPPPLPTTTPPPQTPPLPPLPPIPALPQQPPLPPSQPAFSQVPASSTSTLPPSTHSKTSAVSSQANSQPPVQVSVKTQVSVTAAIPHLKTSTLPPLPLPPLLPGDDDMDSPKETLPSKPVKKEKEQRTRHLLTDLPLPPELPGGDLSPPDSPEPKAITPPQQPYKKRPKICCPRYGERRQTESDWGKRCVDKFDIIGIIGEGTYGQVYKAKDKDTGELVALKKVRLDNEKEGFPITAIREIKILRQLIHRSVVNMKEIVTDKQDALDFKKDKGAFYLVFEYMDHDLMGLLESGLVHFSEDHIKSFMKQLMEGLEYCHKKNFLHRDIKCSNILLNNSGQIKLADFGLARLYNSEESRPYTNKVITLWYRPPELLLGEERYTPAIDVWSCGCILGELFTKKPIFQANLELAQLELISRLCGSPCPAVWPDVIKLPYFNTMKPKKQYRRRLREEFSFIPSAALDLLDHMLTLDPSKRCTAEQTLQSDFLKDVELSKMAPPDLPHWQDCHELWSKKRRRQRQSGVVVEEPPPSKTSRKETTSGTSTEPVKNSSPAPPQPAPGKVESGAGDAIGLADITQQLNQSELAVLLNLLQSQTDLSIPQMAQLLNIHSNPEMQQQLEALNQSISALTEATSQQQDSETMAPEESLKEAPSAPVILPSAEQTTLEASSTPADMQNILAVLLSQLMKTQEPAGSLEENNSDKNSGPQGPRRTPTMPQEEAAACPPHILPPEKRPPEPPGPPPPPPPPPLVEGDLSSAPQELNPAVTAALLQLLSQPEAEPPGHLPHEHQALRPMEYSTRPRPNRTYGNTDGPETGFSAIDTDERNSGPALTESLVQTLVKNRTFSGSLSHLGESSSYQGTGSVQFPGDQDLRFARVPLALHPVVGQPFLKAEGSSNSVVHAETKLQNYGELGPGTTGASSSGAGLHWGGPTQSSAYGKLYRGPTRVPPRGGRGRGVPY
Cyclin-dependent kinase 4, sequence (P11802 whole entry): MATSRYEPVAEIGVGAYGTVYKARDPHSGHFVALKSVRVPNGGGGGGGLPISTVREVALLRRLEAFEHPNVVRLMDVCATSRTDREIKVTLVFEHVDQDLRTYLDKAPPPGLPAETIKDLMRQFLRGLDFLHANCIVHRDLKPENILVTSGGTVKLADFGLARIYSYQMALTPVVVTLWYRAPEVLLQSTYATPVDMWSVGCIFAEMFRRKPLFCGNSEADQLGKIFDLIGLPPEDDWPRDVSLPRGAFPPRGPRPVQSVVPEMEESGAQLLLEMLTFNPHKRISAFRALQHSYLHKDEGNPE
Cyclin-dependent kinase 9, sequence (P50750 whole entry): as the sequence (P50750 whole entry) above

Row | SMILES | GI50 (HCT-116 [1]) [nM] | GI50 (HT-29) [nM] | IC50 (CDK9/cyclin T1) [nM] | inhibition [2] [%] | further results
1 | CC(C)n1nnc2ccc(-c3ccnc(Nc4ccc(C(=O)N5CCNC(=O)C5)cn4)c3)cc21 | 90 | 300 | 2.3 | – | –
2 | CC(C)n1nnc2ccc(-c3ccnc(Nc4ccc(C(=O)N5CCCC5)cn4)c3)cc21 | 310 | 350 | 6.62 | – | –
3 | CC(C)(C)n1nnc2ccc(-c3ccnc(Nc4ccc(C(=O)N5CCOCC5)cc4)c3)cc21 | – | – | – | 73.5 | –
4 | Cc1ncc(-c2ccnc(Nc3ccc(S(C)(=O)=O)cc3)n2)n1C(C)C [AZD-5438] | 450 | 960 | – | – | inhibition (HCT-116 [3]): Dose-Dependent Effect; Activity (HCT-116 [4]): Active
5 | COc1cc(C(=O)N2CCOCC2)ccc1Nc1cc(-c2ccc3nnn(C4CCCCC4)c3c2)ccn1 | – | – | – | 16.3 | –
6 | CC(C)n1nnc2ccc(-c3ccnc(Nc4ccc(C(=O)N5CCN(C)CC5)cn4)c3)cc21 | 250 | 230 | 4.39 | – | –
7 | O=C(c1ccc(Nc2cc(-c3ccc4nnn(C5CCCCC5)c4c3)ccn2)c(C(F)(F)F)c1)N1CCOCC1 | – | – | – | 0.49 | –
8 | CC(C)(C)n1nnc2ccc(-c3ccnc(Nc4ccc(C(=O)N5CCOCC5)cc4C(F)(F)F)c3)cc21 | – | – | – | 6.51 | –
9 | CCN1CCN(C(=O)c2ccc(Nc3cc(-c4ccc5nnn(C(C)C)c5c4)ccn3)nc2)CC1 | 60 | 50 | 3.8 | – | inhibition [5]: Active; inhibition [6]: Active; inhibition (Homo sapiens): Active; inhibition [7]: Active
10 | CC(C)(C)n1nnc2ccc(-c3ccnc(Nc4ccc(C(=O)N5CCOCC5)cc4F)c3)cc21 | – | – | – | 50.3 | –
11 | O=C(c1ccc(Nc2cc(-c3ccc4nnn(C5CCCCC5)c4c3)ccn2)cc1)N1CCOCC1 | – | – | – | 76 | –
12 | O=C(c1ccc(Nc2cc(-c3ccc4nnn(C5CCCCC5)c4c3)ccn2)nc1)N1CCOCC1 | – | – | 13.2 | 98 | –
13 | O=C(c1ccc(Nc2cc(-c3ccc4nnn(C5CCCC5)c4c3)ccn2)c(F)c1)N1CCOCC1 | – | – | – | 12.9 | –
14 | O=C(c1ccc(Nc2cc(-c3ccc4nnn(C5CCCC5)c4c3)ccn2)nc1)N1CCOCC1 | – | – | 9.92 | 99.7 | –
15 | CC(C)n1nnc2ccc(-c3ccnc(Nc4ccc(C(=O)N5CCCN(C)CC5)cn4)c3)cc21 | 280 | > 2000 | 3.05 | – | –
16 | CC(C)(C)n1nnc2ccc(-c3ccnc(Nc4ccc(C(=O)N5CCOCC5)cn4)c3)cc21 | – | – | 9.73 | 98.9 | –
17 | O=C(c1ccc(Nc2cc(-c3ccc4nnn(C5CCCCC5)c4c3)ccn2)c(F)c1)N1CCOCC1 | – | – | – | 41.1 | –
18 | O=C(c1ccc(Nc2cc(-c3ccc4nnn(C5CCCC5)c4c3)ccn2)cc1)N1CCOCC1 | – | – | – | 81.2 | –
19 | COc1cc(C(=O)N2CCOCC2)ccc1Nc1cc(-c2ccc3nnn(C(C)(C)C)c3c2)ccn1 | – | – | – | 28.1 | –
20 | O=C(c1ccc(Nc2cc(-c3ccc4nnn(C5CCCC5)c4c3)ccn2)c(C(F)(F)F)c1)N1CCOCC1 | – | – | – | 47.1 | –
21 | COc1cc(C(=O)N2CCOCC2)ccc1Nc1cc(-c2ccc3nnn(C4CCCC4)c3c2)ccn1 | – | – | – | 23.5 | –
22 | CC(C)N1CCN(C(=O)c2ccc(Nc3cc(-c4ccc5nnn(C(C)C)c5c4)ccn3)nc2)CC1 | 330 | 80 | 4.08 | – | –

Second part, led by results:

Row | GI50 (HCT-116 [1]) [nM] | GI50 (HT-29) [nM] | IC50 (CDK9/cyclin T1) [nM] | inhibition [2] [%] | SMILES | further results
23 | 70 | 650 | 3.06 | – | CC(C)n1nnc2ccc(-c3ccnc(Nc4cc(C(=O)N5CCOCC5)ccn4)c3)cc21 | –
24 | – | – | – | 65.3 | CC(C)n1nnc2ccc(-c3ccnc(Nc4ccc(C(=O)N5CCOCC5)cc4F)c3)cc21 | –
25 | 60 | 510 | 3.92 | – | CCN1CCN(C(=O)c2ccnc(Nc3cc(-c4ccc5nnn(C(C)C)c5c4)ccn3)c2)CC1 | –
26 | – | – | – | 83 | CC(C)n1nnc2ccc(-c3ccnc(Nc4ccc(C(=O)N5CCOCC5)cc4)c3)cc21 | –
27 | – | – | – | 41.7 | COc1cc(C(=O)N2CCOCC2)ccc1Nc1cc(-c2ccc3nnn(C(C)C)c3c2)ccn1 | –
28 | 520 | > 2000 | 1.94 | – | CC(C)n1nnc2ccc(-c3ccnc(Nc4cc(C(=O)N5CCNC(=O)C5)ccn4)c3)cc21 | –
29 | – | – | – | 11.4 | CC(C)n1nnc2ccc(-c3ccnc(Nc4ccc(C(=O)N5CCOCC5)cc4C(F)(F)F)c3)cc21 | –
30 | 350 | 220 | 9.43 | 101 | CC(C)n1nnc2ccc(-c3ccnc(Nc4ccc(C(=O)N5CCOCC5)cn4)c3)cc21 | –
31 | 40 | 410 | 3.37 | – | CC(C)N1CCN(C(=O)c2ccnc(Nc3cc(-c4ccc5nnn(C(C)C)c5c4)ccn3)c2)CC1 | inhibition at 0.25 h, 10 µM (CYP2C19): 48.3%; inhibition at 0.25 h, 10 µM (CYP3A4): 15.7%; IC50 [8]: > 500 nM; IC50 [9]: > 500 nM; IC50 [10]: 33.1 nM; half-life [11]: > 289 min; IC50 [12]: > 500 nM; half-life at 100 µM [13]: 7.8 min; IC50 [14]: > 500 nM; inhibition at 0.25 h, 10 µM (CYP2C9): 56.3%; IC50 [15]: > 500 nM; CLH [16]: 158.9 µL/min/mg; inhibition at 0.25 h, 10 µM (CYP1A2): 25.1%; IC50 [17]: 167 nM; IC50 [18]: 125 nM; microsomal CLint at 100 µM [19]: 177 µL/min/mg; remaining at 1 h, 100 µM [20]: 0.5%; IC50 [21]: 3.3 nM; inhibition at 0.25 h, 10 µM (CYP2D6): 7.1%
32 | 80 | 770 | 3.44 | – | CC(C)n1nnc2ccc(-c3ccnc(Nc4cc(C(=O)N5CCN(C)CC5)ccn4)c3)cc21 | –
33 | 80 | 420 | 1.32 | – | CC(C)n1nnc2ccc(-c3ccnc(Nc4cc(C(=O)N5CCCC5)ccn4)c3)cc21 | inhibition at 0.25 h, 10 µM (CYP2C19): 56.1%; inhibition at 0.25 h, 10 µM (CYP3A4): 0%; IC50 [8]: > 500 nM; IC50 [9]: > 500 nM; IC50 [10]: 11.5 nM; half-life [11]: > 289 min; IC50 [12]: > 500 nM; half-life at 100 µM [13]: 17.4 min; IC50 [14]: 35.6 nM; inhibition at 0.25 h, 10 µM (CYP2C9): 29.6%; IC50 [15]: > 500 nM; CLH [16]: 71.8 µL/min/mg; inhibition at 0.25 h, 10 µM (CYP1A2): 12.2%; IC50 [17]: 134 nM; IC50 [18]: 161 nM; microsomal CLint at 100 µM [19]: 79.8 µL/min/mg; remaining at 1 h, 100 µM [20]: 9%; IC50 [21]: 1.3 nM; inhibition at 0.25 h, 10 µM (CYP2D6): 0%

Source: ChEMBL document CHEMBL5518230, “Identification of a Novel Selective CDK9 Inhibitor for the Treatment of CRC: Design, Synthesis, and Biological Activity Evaluation” (J Med Chem, 2024)
